Test results published in US20260008784A1 (VASTHERA CO., LTD., priority 2022, published 2026).
Values belong to the compound of their own block, whether it stands above or below them.

Tests used:
[1] = tested on: yeast thioredoxin (Trx)/yeast Trx reductase (TR); test: Peroxidase activity assay (H2O2 reduction, NADPH oxidation); type: biochemical; conditions: 50 μM test compound, 3 μM yeast Trx, 1.5 μM yeast TR, 250 μM NADPH, 1.2 mM H2O2, 30° C.; NADPH oxidized per minute
Experimental: Hydrogen peroxide (H2O2)-reducing peroxidase activity of compounds in present invention was performed as follows. Peroxyredoxin activity was measured in reaction mixture (200 μL volume) containing 50 mM HEPES buffer (pH 7.0), 1 mM EDTA, 250 μM NADPH, 3 μM yeast thioredoxin (Trx), 1.5 μM yeast Trx reductase (TR), 50 μM test compound, and 1.2 mM H2O2.
Reaction was initiated by adding H2O2 and the decrease in absorbance at 340 nm was measured using Agilent UV8453 spectrophotometry (Hewlett Packard, USA) at 30° C. for 12 min. Initial reaction rate is the amount of NADPH oxidized per minute calculated from slope of the linear part of curve.
The H2O2-reducing peroxidase activity of the test compounds in present invention was measured in a reaction mixture containing thioredoxin (Trx)/thioredoxin reductase (TR), respectively.

[2] = Measurement of redox potential (DTT redox buffers, HPLC); type: physicochemical; conditions: DTT(Red)/DTT(Ox) redox buffers, 3 h, 30° C., 50% reduction of test compound
Experimental: A test compound (10 mM) was diluted 20-fold with each redox buffer solution and incubated for 3 h in a 30° C. water bath. Then, compounds were analyzed by HPLC. The area of peaks corresponding to the oxidized and reduced forms of test compound based on specific retention time was calculated and plotted as percent of total peak area against the Nernst equation value (mV) at x-axis. The Nernst equation value corresponding to 50% reduction of test compound was set as the midpoint redox potential value for test compound.
The redox potential values of the test compounds were analyzed based on the potential values established in redox buffer solutions where reduced and oxidized DTT are mixed at various ratios.

[3] = tested on: Tyr 857 phosphorylation of PDGF receptor-β (PDGFRβ) in HASMC; test: Immunoblot of PDGF-mediated signaling in PrxII knock-down HASMC; type: cell-based, human; conditions: HASMC depleted of PrxII expression, FIG. 2
Experimental: (§1) Cells were quickly washed in ice-cold phosphate-buffered saline (PBS) and lysed in extraction buffer containing 20 mM Hepes (pH 7.0), 1% Triton X-100, 150 mM NaCl, 10% glycerol, 1 mM EDTA, 2 mM EGTA, and 1 mM DTT, 5 mM Na3VO4, 5 mM NaF, 1 mM AEBSF, aprotinin (5 μg/mL), and leupeptin (5 μg/mL). After cen-trifugation at 12,000×g, the clarified cell extracts were used for immunoblotting. For re-blotting, the immunoblots were retrieved in a solution of 67 mM Tris (pH 6.7), 2% SDS, and 100 mM 2-mercaptoethanol at 60° C. for 30 min to remove antibodies and rinsed three times with a Tris-buffered saline (TBS) solution containing 1% Triton X-100. The retrieved membranes were subjected to new immunoblotting.
In human aortic smooth muscle cell (HASMC) and human pulmonary artery smooth muscle cell (PASMC) in which PrxII was knocked out by transfecting the PrxII siRNA, the ability of test compounds to replace the cellular function of PrxII was evaluated. That is, the efficacy of the new compounds was verified in terms of signaling pathways induced by PDGF that regulates the growth and migration of vascular smooth muscle cells in the aorta and pulmonary artery. Activation of PDGF-induced signaling pathway was analyzed by an immunoblot method using an antibody that specifically recognizes phosphorylation of Tyr 857, which is a major phosphorylation site on PDGF receptor (PDGFRβ).

[4] = tested on: Tyr 1175 phosphorylation of VEGF receptor-2 (VEGFR2) in HAEC; test: Immunoblot of VEGF-mediated signaling in PrxII knock-down HAEC; type: cell-based, human; conditions: HAECs depleted of PrxII expression, FIG. 5
Experimental: as §1
In human aortic endothelial cell (HAEC) and human pulmonary artery endothelial cell (PAEC) in which PrxII was knocked out by transfecting the PrxII siRNA, the ability of test compounds to replace the cellular function of PrxII was evaluated. That is, the efficacy of the new compounds was verified in terms of signaling pathways induced by VEGF that regulates the growth and migration of vascular endothelial cells in the aorta and pulmonary artery. Activation of VEGF-induced signaling pathway was analyzed by an immunoblot method using an antibody that specifically recognizes phosphorylation of Tyr 1175, which is a major phosphorylation site on VEGF receptor-2 (VEGFR2).

[5] = tested on: human aortic smooth muscle cell (HASMC); test: PDGF-induced proliferation assay, HASMC (PrxII siRNA); type: cell-based; conditions: for Degree of HASMC proliferation: PDGF-BB 25 ng/mL, percent of untreated control
Experimental: (§2) HASMCs and PASMCs were transfected with a PrxII-specific siRNA using RNAi MAX transfection reagent according to manufacturer's protocol. After 24 hours, transfected cells (3,000 cells/well) were seeded in a 96-well culture plate. At 12 h after seeding, cells were serum-starved for additional 18 h in SmBM basal medium containing 0.5% FBS. Test compounds were serially diluted with the same basal medium containing 0.5% FBS, added to the cells ([…]), and incubated for 2 h. After treatment, cells were placed in fresh SmBM medium containing 0.5% FBS and PDGF-BB (25 ng/mL) for growth factor stimulation and further cultured for 24 h.
(§3) The degree of cell proliferation was measured using the Cell Titer-GLO kit ([…]). Data are the percent of luminescence intensity averaged from three replicate wells versus that of untreated control group.
(§4) In human aortic smooth muscle cell (HASMC) and human pulmonary artery smooth muscle cell (PASMC) in which PrxII was knocked out by transfecting the PrxII siRNA, the ability of test compounds to inhibit the PDGF-induced proliferation of vascular smooth muscle cells was evaluated. In Table 6, the degree of proliferation in the compound-treated groups is expressed as percent of the degree of proliferation in untreated control group. The concentrations of test compounds corresponding to 50% growth inhibition (IC50) is also listed.

[6] = tested on: human pulmonary artery smooth muscle cell (PASMC); test: PDGF-induced proliferation assay, PASMC (PrxII siRNA); type: cell-based; conditions: for Degree of PASMC proliferation: PDGF-BB 25 ng/mL, percent of untreated control
Experimental: as §2, §3, §4

[7] = tested on: human aortic endothelial cell (HAEC); test: VEGF-induced proliferation assay, HAEC (PrxII siRNA); type: cell-based; conditions: for Degree of HAEC proliferation: VEGF-A 25 ng/mL, percent of untreated control
Experimental: as §2, with “HAECs” for “HASMCs”, “PAECs” for “PASMCs”, “EBM” for “SmBM”, “VEGF-A” for “PDGF-BB”
as §3
In human aortic endothelial cell (HAEC) and human pulmonary artery endothelial cell (PAEC) in which PrxII was knocked out by transfecting the PrxII siRNA, the ability of test compounds to augment the VEGF-induced proliferation of vascular endothelial cells was evaluated. In Table 7, the degree of proliferation in the compound-treated groups is expressed as percent of the degree of proliferation in untreated control group. The effective concentrations of test compounds increasing cell proliferation by 50% (EC50) is also listed.

Experimental for in vitro: Cytotoxicity tests were performed against vascular endothelial cells, vascular smooth muscle cells and hepatocytes. After treatment with ascending concentrations of each compound, the concentration of test compound corresponding to 50% cell viability (CC50) was measured.

Peroxidase activity for H2O2 reduction [1]: 5.19 nmol/min
Compound: O=C1C2CSSC3(COCCN13)C(=O)N2Cc1ccncc1 (centres unmarked) [Compound 9, 12-(pyridin-4-ylmethyl)tetrahydro-5H,10H-4,10a-(epiminomethano)[1,4]oxazino[3,4-c][1,2,4]dithiazepin-5,11-dione]

Compound: COc1cc(CN2C(=O)C3(C)SSCC2C(=O)N3C)cc(OC)c1OC (centres unmarked) [Compound 3, 1,8-dimethyl-6-(3,4,5-trimethoxybenzyl)-2,3-dithia-6,8-diazabicyclo[3.2.2]nonane-7,9-dione]
Peroxidase activity for H2O2 reduction [1]: 4.11 nmol/min | Midpoint redox potential (E m) [2]: −296 mV | CC50 (in vitro): 82600 nM

Compound: CCN1C(=O)C23COCCN2C(=O)C1CSS3 (centres unmarked) [Compound 10, 12-ethyltetrahydro-5H,10H-4,10a-(epiminomethano)[1,4]oxazino[3,4-c][1,2,4]dithiaze pine-5,11-dione]
Peroxidase activity for H2O2 reduction [1]: 5.06 nmol/min | Midpoint redox potential (E m) [2]: −268.53 mV | Effect on phosphorylation of Tyr 857 on PDGFR [3]: strongly abolish the phosphorylation | Effect on phosphorylation of Tyr 1175 on VEGFR2 [4]: strongly abolish the phosphorylation | Degree of HASMC proliferation ([5]; 2.5 nM): 75.5% | Degree of HASMC proliferation ([5]; 5 nM): 53.8% | Degree of HASMC proliferation ([5]; 10 nM): 31.1% | Degree of HASMC proliferation ([5]; 25 nM): 4.6% | IC50 ([5]; Homo sapiens, HASMC, 50% growth inhibition, PDGF-stimulated): 5.48 nM | Degree of PASMC proliferation ([6]; 2.5 nM): 90.5% | Degree of PASMC proliferation ([6]; 5 nM): 54.1% | Degree of PASMC proliferation ([6]; 10 nM): 44.1% | Degree of PASMC proliferation ([6]; 25 nM): 21.9% | Degree of PASMC proliferation ([6]; 50 nM): 17.5% | Degree of PASMC proliferation ([6]; 100 nM): 7.0% | IC50 ([6]; Homo sapiens, PASMC, 50% growth inhibition, PDGF-stimulated): 8.28 nM | Degree of HAEC proliferation ([7]; 2.5 nM): 111.6% | Degree of HAEC proliferation ([7]; 5 nM): 122.8% | Degree of HAEC proliferation ([7]; 10 nM): 127.6% | Degree of HAEC proliferation ([7]; 25 nM): 140.7% | Degree of HAEC proliferation ([7]; 50 nM): 175.1% | Degree of HAEC proliferation ([7]; 100 nM): 159.0% | EC50 ([7]; Homo sapiens, Endothelial cell, effective concentration increasing cell proliferation by 50%, VEGF-stimulated): 19.3 nM

Compound: CN1C(=O)C2CSSC1(C)C(=O)N2Cc1ccc(F)cc1F (centres unmarked) [Compound 4]
Peroxidase activity for H2O2 reduction [1]: 3.82 nmol/min | Midpoint redox potential (E m) [2]: −292.74 mV | CC50 (in vitro): 98000 nM

Compound: CC1SSC2(C)C(=O)N(Cc3ccccc3)C1C(=O)N2C (centres unmarked) [Compound 24, 6-benzyl-1,4,8-trimethyl-2,3-dithia-6,8-diazabicyclo[3.2.2]nonane-7,9-dione]
Peroxidase activity for H2O2 reduction [1]: 4.26 nmol/min

Compound: CN1CCN2C(=O)C3CSSC2(C1)C(=O)N3Cc1ccncc1 (centres unmarked) [Compound 22]
Peroxidase activity for H2O2 reduction [1]: 7.97 nmol/min | Effect on phosphorylation of Tyr 857 on PDGFR [3]: strongly abolish the phosphorylation

Peroxidase activity for H2O2 reduction [1]: 4.91 nmol/min
Compound: COC(=O)c1ccc(CN2C(=O)C3CSSC2(C)C(=O)N3C)cc1 (centres unmarked) [Compound 18, Methyl 4-((1,6-dimethyl-7,9-dioxo-2,3-dithia-6,8-diazabicyclo[3.2.2]nonan-8-yl)methyl)benzo ate]

Compound: 6-benzyl-1,4,8-trimethyl-2,3-dithia-6,8-diazabicyclo[3.2.2]nonane-7,9-dione [Compound 25]
Peroxidase activity for H2O2 reduction [1]: 4.51 nmol/min

Compound: CN1C(=O)C2(C)SSCC1C(=O)N2Cc1ncccn1 (centres unmarked) [Compound 16, 1,6-dimethyl-8-(pyrimidin-2-ylmethyl)-2,3-dithia-6,8-diazabicyclo[3.2.2]nonane-7,9-d ione]
Peroxidase activity for H2O2 reduction [1]: 4.93 nmol/min

Compound: CN1C(=O)C2(C)SSCC1C(=O)N2Cc1cn(C)cn1 (centres unmarked) [Compound 17, 1,6-dimethyl-8-((1-methyl-1H-imidazol-4-yl)methyl)-2,3-dithia-6,8-diazabicyclo[3.2.2]nonane-7,9-dione]
Peroxidase activity for H2O2 reduction [1]: 4.80 nmol/min

Peroxidase activity for H2O2 reduction [1]: 4.57 nmol/min
Compound: O=C1C2CSSC3(CCCN13)C(=O)N2Cc1ccncc1 (centres unmarked) [Compound 11, 11-(pyridin-4-ylmethyl)tetrahydro-5H,7H-4,9a-(epiminomethano)pyrrolo[2,1-c][1,2,4]dithiazepine-5,10-dione]
